Our source for the IC50 values is patent US20250059204A1, “FUSED BENZOISOXAZOLYL COMPOUNDS AS KAT6A INHIBITORS” (Aurigene Oncology Limited, priority 2021, published 2025).

The term pIC50 denotes −log10 of the IC50, conventionally taken in molar units.

Molecules are shown by their SMILES. pIC50: −log10 of the molar value.

The target in this assay is human-KAT6A (MYST domain 507-778 aa) (Homo sapiens (Human), UniProt Q92794). The assay can be described thus: KAT6A biochemical assay (TR-FRET). The note with it: H4 peptide 200 nM, acetyl-CoA 600 nM. From the text: TR-FRET based method was used for assaying compounds of the present invention for KAT6A enzyme inhibitory activity. TR-FRET is homogeneous proximity assay where Europium-labelled anti-acetyl lysine antibody binds to the acetylated substrate labelled with biotin which in turn binds to streptavidin labelled APC fluorescence acceptor. Europium can transfer energy to APC in the complex and the interaction of two dye-labelled binding partners is detected by the energy transfer between a donor and an acceptor dye, and the subsequent light emission by the acceptor dye. KAT6A transfer an acetyl group from acetyl CoA to lysine amino acids of histones/target proteins. Typically, 5 μL of human-KAT6A (MYST domain 507-778 aa) in assay buffer (100 mM Tris HCl (pH 7.8), 15 mM NaCl, 1 mM EDTA, 0.01% Tween-20, 0.02% BSA, 1 mM DTT) is added to 384-well plate containing 5 μL of selected test compound in final 1% DMSO, serially diluted in 1:3 in an 8-10-point titration. The selected compound of the present invention and enzyme are incubated for 30 min at room temperature. Next, 5 μL of substrate mix containing histone H4 peptide and acetyl-CoA in assay buffer is added to the plate. The final concentrations of H4 peptide and acetyl-CoA are 200 nM and 600 nM respectively. Following 30 min reaction at room temperature, 5 μL of detection mix containing Europium labelled anti-acetyl antibody and streptavidin-APC is added to the reaction wells. The plate is further incubated for 45 min at room temperature and is read in TR-FRET mode (Ex:340 nm; Em: 615 nm and 665 nm) on a plate reader. The percent inhibition was calculated from the ratio of the fluorescence (FL) intensities [(F665/F615)×10,000) using the formula […]. IC50 values of the compounds were determined by fitting the dose-response data to sigmoidal curve fitting equation using Graph pad prism software V8.
Chain of human-KAT6A (MYST domain 507-778 aa) (Q92794 507-778): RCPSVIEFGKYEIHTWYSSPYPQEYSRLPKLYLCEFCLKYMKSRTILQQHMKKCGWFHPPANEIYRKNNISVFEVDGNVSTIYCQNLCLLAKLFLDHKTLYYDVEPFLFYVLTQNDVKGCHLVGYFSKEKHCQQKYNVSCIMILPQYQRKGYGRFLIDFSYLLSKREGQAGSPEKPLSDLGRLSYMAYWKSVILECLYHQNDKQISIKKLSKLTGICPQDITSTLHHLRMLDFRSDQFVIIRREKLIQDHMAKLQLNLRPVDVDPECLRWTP
On the technique in general: TR-FRET usually uses a lanthanide donor and a delayed reading to cut background.
In turn, `COc1cccc(OC)c1S(=O)(=O)Nc1noc2cc(Cn3cccn3)c3c(c12)OC(C)C3` (single isomer, unassigned) [Compound 22, N-(4-((1H-pyrazol-1-yl)methyl)-2-methyl-2,3-dihydrobenzofuro[7,6-d]isoxazol-8-yl)-2,6-dimethoxybenzenesulfonamide] had a pIC50 of 7.68.

Compound `COc1cccc(OC)c1S(=O)(=O)Nc1noc2cc(Cn3cccn3)c3c(c12)OC(C)C3` (single isomer, unassigned) [Compound 23, N-(4-((1H-pyrazol-1-yl)methyl)-2-methyl-2,3-dihydrobenzofuro[7,6-d]isoxazol-8-yl)-2,6-dimethoxybenzenesulfonamide] had a pIC50 of 7.64.

Regarding `COCC1Cc2c(Cn3cccn3)cc3onc(NS(=O)(=O)c4c(OC)cccc4OC)c3c2O1` (single isomer, unassigned) [Compound 61, N-(4-((1H-pyrazol-1-yl)methyl)-2-(methoxymethyl)-2,3-dihydrobenzofuro[7,6-d]isoxazol-8-yl)-2,6-dimethoxybenzenesulfonamide], the pIC50 is 6.55.

On to `COCC1Cc2c(Cn3cccn3)cc3onc(NS(=O)(=O)c4c(OC)cccc4OC)c3c2O1` (single isomer, unassigned) [Compound 62, N-(4-((1H-pyrazol-1-yl)methyl)-2-(methoxymethyl)-2,3-dihydrobenzofuro[7,6-d]isoxazol-8-yl)-2,6-dimethoxybenzenesulfonamide], for which the pIC50 was 6.79.

Compound `COc1cccc(OC)c1S(=O)(=O)Nc1noc2cc(-c3ccccc3)c3c(c12)OCC3` [Compound 1, 2,6-dimethoxy-N-(4-phenyl-2,3-dihydrobenzofuro[7,6-d]isoxazol-8-yl)benzenesulfonamide] gave a pIC50 of 7.24.

Take `COc1cccc(OC)c1S(=O)(=O)Nc1noc2cc(Cn3cccn3)c3c(c12)OCC3` [Compound 2, N-(4-((1H-pyrazol-1-yl)methyl)-2,3-dihydrobenzofuro[7,6-d]isoxazol-8-yl)-2,6-dimethoxybenzenesulfonamide]: the pIC50 was 7.70.

For `COc1cccc(OC)c1S(=O)(=O)Nc1noc2cc(-c3ccsc3)c3c(c12)OCC3` [Compound 3], the pIC50 is 7.37.

In turn, `COc1cccc(OC)c1S(=O)(=O)Nc1noc2cc(-c3ccoc3)c3c(c12)OCC3` [Compound 4] had a pIC50 of 7.54.

Regarding `COc1cccc(OC)c1S(=O)(=O)Nc1noc2cc(-c3cccs3)c3c(c12)OCC3` [Compound 6], the pIC50 is 7.34.

For `COc1csc(-c2cc3onc(NS(=O)(=O)c4c(OC)cccc4OC)c3c3c2CCO3)c1` [Compound 7], the pIC50 was 6.82.

Consider `COc1cccc(OC)c1S(=O)(=O)Nc1noc2cc(-c3ccco3)c3c(c12)OCC3` [Compound 8], for which the pIC50 is 7.37.

With `COc1cccc(OC)c1S(=O)(=O)Nc1noc2cc(-c3ccc(C)o3)c3c(c12)OCC3` [Compound 9], the pIC50 is 7.44.

In turn, `COc1cccc(OC)c1S(=O)(=O)Nc1noc2cc(-c3scnc3C)c3c(c12)OCC3` [Compound 11] gave a pIC50 of 7.06.

Take `COc1cccc(OC)c1S(=O)(=O)Nc1noc2cc(-c3ccc(C)s3)c3c(c12)OCC3` [Compound 12]: the pIC50 was 6.54.

On to `COc1cccc(OC)c1S(=O)(=O)Nc1noc2cc(-c3cc(C)cs3)c3c(c12)OCC3` [Compound 13], for which the pIC50 was 7.15.

The compound `COc1cccc(OC)c1S(=O)(=O)Nc1noc2cc(-c3ccccc3)c3c(c12)OCCC3` [Compound 15] showed a pIC50 of 7.35.

Compound `COc1cccc(OC)c1S(=O)(=O)Nc1noc2cc(-c3ccccc3)c3c(c12)OCCC3C` (centres unmarked) [Compound 17] gave a pIC50 of 7.13.

For the compound `COc1cccc(OC)c1S(=O)(=O)Nc1noc2cc(-c3ccccc3)c3c(c12)OC(C)C3` (centres unmarked) [Compound 18], the pIC50 is 7.43.

The compound `COCc1cc2onc(NS(=O)(=O)c3c(OC)cccc3OC)c2c2c1CCO2` [Compound 19] showed a pIC50 of 7.51.

Compound `COc1cccc(OC)c1S(=O)(=O)Nc1noc2cc(C(C)n3cccn3)c3c(c12)OCC3` (centres unmarked) [Compound 20] showed a pIC50 of 7.29.

With `COc1cccc(OC)c1S(=O)(=O)Nc1noc2cc(Cn3cccn3)c3c(c12)OC(C)C3` (centres unmarked) [Compound 21, N-(4-((1H-pyrazol-1-yl)methyl)-2-methyl-2,3-dihydrobenzofuro[7,6-d]isoxazol-8-yl)-2,6-dimethoxybenzenesulfonamide], the pIC50 is 7.72.

Compound `COc1cc(C(F)(F)F)ccc1S(=O)(=O)Nc1noc2cc(Cn3cccn3)c3c(c12)OCC3` [Compound 31] gave a pIC50 of 7.74.

`COc1cccc(OC)c1S(=O)(=O)Nc1noc2cc(Cn3cc(C#N)cn3)c3c(c12)OCC3` [Compound 33] gave a pIC50 of 6.90.

In the case of `COc1cccc(OC)c1S(=O)(=O)Nc1noc2cc(Cn3cc(F)cn3)c3c(c12)OCC3` [Compound 34], the pIC50 is 7.59.

`COc1cccc(OC)c1S(=O)(=O)Nc1noc2cc(Cn3cc(Cl)cn3)c3c(c12)OCC3` [Compound 35] showed a pIC50 of 7.57.

In the case of `COc1cccc(OC)c1S(=O)(=O)Nc1noc2cc(Cn3cc(C(F)(F)F)cn3)c3c(c12)OCC3` [Compound 36], the pIC50 is 6.66.

The compound `COc1cccc(OC)c1S(=O)(=O)Nc1noc2cc(Cn3ccc(C(F)(F)F)n3)c3c(c12)OCC3` [Compound 37] showed a pIC50 of 6.31.

On to `O=S(=O)(Nc1noc2cc(Cn3cccn3)c3c(c12)OCC3)c1ccccc1OCc1ccccn1` [Compound 38], for which the pIC50 was 7.49.

As for `COc1cc(-n2cccn2)ccc1S(=O)(=O)Nc1noc2cc(Cn3cccn3)c3c(c12)OCC3` [Compound 39], the pIC50 is 7.66.

The compound `COc1ccc(-n2cccn2)cc1S(=O)(=O)Nc1noc2cc(Cn3cccn3)c3c(c12)OCC3` [Compound 40] showed a pIC50 of 7.57.

`COc1cccc(OC)c1S(=O)(=O)Nc1noc2cc(Cn3ccnn3)c3c(c12)OCC3` [Compound 41] showed a pIC50 of 7.60.

`COC(=O)c1ccc(OC)c(S(=O)(=O)Nc2noc3cc(Cn4cccn4)c4c(c23)OCC4)c1` [Compound 42] had a pIC50 of 7.58.

`COc1cc2c(cc1S(=O)(=O)Nc1noc3cc(Cn4cccn4)c4c(c13)OCC4)CCCC2` [Compound 43] had a pIC50 of 7.92.

`COc1cc2c(cc1S(=O)(=O)Nc1noc3cc(Cn4cccn4)c4c(c13)OCC4)CCC2` [Compound 44] had a pIC50 of 7.49.

In turn, `O=S(=O)(Nc1noc2cc(Cn3cccn3)c3c(c12)OCC3)c1c(Cl)cccc1Cl` [Compound 45] showed a pIC50 of 7.40.

Regarding `CCc1ccc(OC)c(S(=O)(=O)Nc2noc3cc(Cn4cccn4)c4c(c23)OCC4)c1` [Compound 46], the pIC50 is 7.70.

Turning to `COc1cc(C(C)(C)C)ccc1S(=O)(=O)Nc1noc2cc(Cn3cccn3)c3c(c12)OCC3` [Compound 47], the pIC50 is 7.59.

As for `O=S(=O)(Nc1noc2cc(Cn3cccn3)c3c(c12)OCC3)c1c(F)cccc1F` [Compound 48], the pIC50 is 7.52.

Turning to `COc1ccc(C(C)(C)C)cc1S(=O)(=O)Nc1noc2cc(Cn3cccn3)c3c(c12)OCC3` [Compound 49], the pIC50 is 7.12.

For `O=S(=O)(Nc1noc2cc(Cn3cccn3)c3c(c12)OCC3)c1ccccc1OC(F)(F)F` [Compound 50], the pIC50 was 7.15.

As for `O=S(=O)(Nc1noc2cc(Cn3cccn3)c3c(c12)OCC3)c1ccccc1F` [Compound 51], the pIC50 was 7.46.

`CCOc1ccccc1S(=O)(=O)Nc1noc2cc(Cn3cccn3)c3c(c12)OCC3` [Compound 52] had a pIC50 of 7.49.

The compound `O=S(=O)(Nc1noc2cc(Cn3cccn3)c3c(c12)OCC3)c1ccccc1-c1ccccc1` [Compound 53] showed a pIC50 of 7.54.

As to `COc1cccc(OC)c1S(=O)(=O)Nc1noc2cc(-c3cccnc3)c3c(c12)OCC3` [Compound 54], the pIC50 was 6.80.

Take `COc1ccccc1S(=O)(=O)Nc1noc2cc(Cn3cccn3)c3c(c12)OCC3` [Compound 55]: the pIC50 was 7.47.

As for `COc1cccc(OC)c1S(=O)(=O)Nc1noc2cc(-c3ccccc3)c3c(c12)OC(C)(C)C3` [Compound 57], the pIC50 was 6.87.

In the case of `COc1cccc(OC)c1S(=O)(=O)Nc1noc2cc(Cn3cccn3)c3cc(C)oc3c12` [Compound 58], the pIC50 is 7.68.

In turn, `COc1cccc(OC)c1S(=O)(=O)Nc1noc2cc(-c3ccccc3)c3cc(C)oc3c12` [Compound 59] showed a pIC50 of 7.46.

`COCC1Cc2c(Cn3cccn3)cc3onc(NS(=O)(=O)c4c(OC)cccc4OC)c3c2O1` (centres unmarked) [Compound 60, N-(4-((1H-pyrazol-1-yl)methyl)-2-(methoxymethyl)-2,3-dihydrobenzofuro[7,6-d]isoxazol-8-yl)-2,6-dimethoxybenzenesulfonamide] showed a pIC50 of 7.00.

The compound `COc1ccc(C(=O)O)cc1S(=O)(=O)Nc1noc2cc(Cn3cccn3)c3c(c12)OCC3` [Compound 63, 3—(N-(4-((1H-pyrazol-1-yl)methyl)-2,3-dihydrobenzofuro[7,6-d]isoxazol-8-yl)sulfamoyl)-4-methoxybenzoic Acid] showed a pIC50 of 7.64.
